Measurements from patent US5663205A, “Pharmaceutical composition for use in glaucoma treatment” (Senju Pharmaceutical Co. Ltd., priority 1992, dated 1997).

Tests used:
[1] = tested on: Normal Intraocular Pressure; assay: Test Example 1 (1): intraocular pressure reducing activity on normal intraocular pressure, pigmented rabbits; format: in vivo, pigmented rabbits (Dutch belted rabbits)
Description: Intraocular Pressure Reducing Activity of Amosulalol Hydrochloride on Normal Intraocular Pressure in Pigmented Rabbits Male pigmented rabbits (Dutch belted rabbits) weighing about 2 kg, after having been confirmed to be free from ocular abnormalities; were bred in a breeding room maintained at a temperature of 24± 4° C. and at a relative humidity of 55± 15%, while they were given solid food (Labo RG-RO manufactured by Nihon Nohsan Kogyo K.K.) at a daily rate of 100 g per rabbit and allowed free access to tap water as drinking water. As a test drug, amosulalol hydrochloride was processed into 0.05% (hereinafter, the term "%" is to be understood to designate "w/v %") and 1.0% aqueous solutions which were used in the test, and 0.5% timolol maleate ophthalmic solution [Timoptol (registered trademark): Ban-yu Pharmaceutical Co.] and physiological saline were used as a positive control drug and a control substance, respectively. (1) Measurement of intraocular pressure: Thirty two (32) rabbits were divided into four groups each consisting of 8 rabbits, and 50 μl of test drugs as well as the control drug and physiological saline were applied topically to one eye each of the individual rabbits, with the other being left untreated. Before instillation and 0.5, 1, 2, 3, 4, 6 and 8 hours after topical application,intraocular pressure for both of eyes of each rabbit was measured using a Pneumatonograph (manufactured by Alcon Co. Hereinafter referred to briefly as "PTG"). Shown in FIG. 1 are time-course changes of intraocular pressure taken with the eyes treated by instillation of each of the test drugs, control drug and physiological saline, with time (hour) after instillation taken as abscissa and intraocular pressure (mmHg as ordinate; each value in mean±S.E. (number of cases is 8). The signs "a", "b", "d" and "e" designate physiological saline, 0.05% aqueous solution of amosulalol hydrochloride, 1.0% aqueous solution of amosulalol hydrochloride, and 0.5% ophthalmic solution of timolol maleate, respectively.

[2] = tested on: Normal Intraocular Pressure; assay: Test Example 3: intraocular pressure, consecutive application for 5 days, pigmented rabbits; format: in vivo; conditions: 0.5% aqueous solution
Description: Intraocular Pressure Reducing Activity of Amosulalol Hydrochloride by Consecutive Application for 5 Days on Normal Intraocular Pressure in Pigmented Rabbits
Eight (8) male pigmented rabbits weighing about 2 kg, after having been confirmed to be free from ocular abnormalities, were bred in a breeding room maintained at a temperature of 24± 4° C. and at a relative humidity of 55± 15%, while they were given solid food (Labo RG-RO, manufactured by Nihon Nohsan Kogyo K.K.) at a daily rate of 100 g per rabbit and allowed free access to tap water as drinking water.
For the 8 pigmented rabbits bred by the above procedure, 50 μl of 0.5% aqueous solution of amosulalol hydrochloride was applied to one eye, with 50 μl of physiological saline being given topically to the other. Intraocular pressure was measured before the first instillation and at regular intervals of 1 hour up to 8 hours after application on Days 1 and 5, and before the first instillation and 2 or 3 hours after application on Days 2, 3 and 4, respectively, with intraocular pressure additionally being measured 24 hours after the first instillation on Day 5.
The signs "a" and "c" designate physiological saline, 0.5% aqueous solution of amosulalol hydrochloride, respectively.

[3] = tested on: Hypertensive Intraocular Pressure Induced by Laser Irradiation; assay: Test Example 5: hypertensive intraocular pressure induced by laser irradiation, pigmented rabbits; format: in vivo; conditions: 0.5% aqueous solution
Description: Intraocular Pressure Reducing Activity of 0.5% Aqueous Solution of Amosulalol Hydrochloride on Hypertensive Intraocular Pressure Induced by Laser Irradiation in Pigmented Rabbits
With 5 male pigmented rabbits weighing about 2 kg used as test animals, 50 μl of 0.5% aqueous solution of amosulalol hydrochloride was applied in a 50 μl portion to one eye of each rabbit, with 50 μl of physiological saline being given to the other. 30 min later, a laser beam was irradiated onto 6 different spots (spot size: 200 μm, power of 0.5 W, for 0.1 sec) of the irises in both eyes in such a manner that the spots were located at an equal distance. Intraocular pressure was measured for both eyes using PTG before instillation as well as before laser irradiation and 15, 30 and 45 min after laser irradiation.
FIG. 7 is a graph showing the intraocular pressure reducing activity of 0.5% aqueous solution of amosulalol hydrochloride on hypertensive intraocular pressure induced by laser irradiation in pigmented rabbits, with time (min) after laser irradiation taken as abscissa and intraocular pressure (mmHg) as ordinate; each value in mean ± S.E. (the number in each case is 8). The signs "a" and "c" designate physiological saline and 0.5% aqueous solution of amosulalol hydrochloride, respectively.

conjunctiva = assay: Test Example 2: conjunctival hyperemia, pigmented rabbits; format: in vivo, pigmented rabbits (Dutch belted rabbits); conditions: concentrations of less than 0.5%

COc1ccccc1OCCNCC(O)c1ccc(C)c(S(N)(=O)=O)c1.Cl (stereo not drawn) [amosulalol hydrochloride, 5-[1-hydroxy-2-[2-(2-methoxyphenoxy)ethylamino]ethyl]-2-methylbenzenesulfonamide hydrochloride]
maximum decrease in intraocular pressure ([1]; 0.05% aqueous solution, 2 hours after topical application): 3.6 mmHg
maximum decrease in intraocular pressure ([1]; 1.0% aqueous solution, 50 μl topical, 3 hours after instillation): 9.0 mmHg
decrease in intraocular pressure sustained until (time after instillation) ([1]; 1.0% aqueous solution, sustained from 30 min after instillation): 6 h
return of intraocular pressure to the initial value (time) ([2]; Day 1): 24 h
maximum drop in intraocular pressure ([2]; Day 1, 2 hours after the first instillation): 4.8 mmHg
further decrease in intraocular pressure by second instillation ([2]; Day 1, second instillation 4 hours later): not found to bring about any further decrease in intraocular pressure
decrease in intraocular pressure ([2]; Day 2, 2 hours after instillation): significant decrease in intraocular pressure
decrease in intraocular pressure ([2]; Day 3): no significant intraocular pressure drop
decrease in intraocular pressure ([2]; Day 4): significant decrease in intraocular pressure
decrease in intraocular pressure ([2]; Day 5, any measuring time): almost the same degree of intraocular pressure decrease as on Day 1
tachyphylaxis ([2]; three times a day for 5 days): free from tachyphylaxis
decrease in intraocular pressure before laser irradiation ([3]; 30 min after instillation, immediately before laser irradiation): 4.5 mmHg
suppressory activity against increase of the intraocular pressure ([3]; laser irradiation): exhibits suppressory activity against increase of the intraocular pressure
intraocular pressure after laser irradiation ([3]; physiological saline increased by 7.9 mmHg about 15 min after irradiation): increased to almost the same level as before instillation
conjunctival hyperemia (conjunctiva): merely a slight degree of conjunctival hyperemia
